From the CheMixHub viscosity set

Test: xn = mol fraction of the nth substance listed

NC=O + CO
Conditions	viscosity [mPa·s]
298.15 K, 100 kPa, x1 = 0.04242	0.594
298.15 K, 100 kPa, x1 = 0.1098	0.672
298.15 K, 100 kPa, x1 = 0.1552	0.728
298.15 K, 100 kPa, x1 = 0.1966	0.784
298.15 K, 100 kPa, x1 = 0.2342	0.843
298.15 K, 100 kPa, x1 = 0.3571	1.06
298.15 K, 100 kPa, x1 = 0.4211	1.2
298.15 K, 100 kPa, x1 = 0.4775	1.33
298.15 K, 100 kPa, x1 = 0.5097	1.42
298.15 K, 100 kPa, x1 = 0.5776	1.6
298.15 K, 100 kPa, x1 = 0.6744	1.9
298.15 K, 100 kPa, x1 = 0.7135	2.03
298.15 K, 100 kPa, x1 = 0.8191	2.45
298.15 K, 100 kPa, x1 = 0.8522	2.6
298.15 K, 100 kPa, x1 = 0.9099	2.86
298.15 K, 101 kPa, x1 = 0.1	0.746
298.15 K, 101 kPa, x1 = 0.2	0.861
298.15 K, 101 kPa, x1 = 0.3	1.055
298.15 K, 101 kPa, x1 = 0.3966	1.247
298.15 K, 101 kPa, x1 = 0.4978	1.484
298.15 K, 101 kPa, x1 = 0.6	1.749
298.15 K, 101 kPa, x1 = 0.7	2.067
298.15 K, 101 kPa, x1 = 0.7988	2.431
298.15 K, 101 kPa, x1 = 0.902	2.874
303.15 K, 101.3 kPa, x1 = 0.0714	0.55
303.15 K, 101.3 kPa, x1 = 0.1586	0.63
303.15 K, 101.3 kPa, x1 = 0.2422	0.74
303.15 K, 101.3 kPa, x1 = 0.32	0.85
303.15 K, 101.3 kPa, x1 = 0.3836	0.95
303.15 K, 101.3 kPa, x1 = 0.5273	1.2
303.15 K, 101.3 kPa, x1 = 0.5975	1.4
303.15 K, 101.3 kPa, x1 = 0.6822	1.6
303.15 K, 101.3 kPa, x1 = 0.7619	1.8
303.15 K, 101.3 kPa, x1 = 0.8279	2
303.15 K, 101.3 kPa, x1 = 0.917	2.3
308.15 K, 101.3 kPa, x1 = 0.0714	0.51
308.15 K, 101.3 kPa, x1 = 0.1586	0.59
308.15 K, 101.3 kPa, x1 = 0.2422	0.68
308.15 K, 101.3 kPa, x1 = 0.32	0.78
308.15 K, 101.3 kPa, x1 = 0.3836	0.87
308.15 K, 101.3 kPa, x1 = 0.5273	1.1
308.15 K, 101.3 kPa, x1 = 0.5975	1.2
308.15 K, 101.3 kPa, x1 = 0.6822	1.4
308.15 K, 101.3 kPa, x1 = 0.7619	1.6
308.15 K, 101.3 kPa, x1 = 0.8279	1.8
308.15 K, 101.3 kPa, x1 = 0.917	2.1
313.15 K, 101 kPa, x1 = 0.1	0.584
313.15 K, 101 kPa, x1 = 0.2	0.685
313.15 K, 101 kPa, x1 = 0.3	0.818
313.15 K, 101 kPa, x1 = 0.3966	0.995
313.15 K, 101 kPa, x1 = 0.4978	1.116
313.15 K, 101 kPa, x1 = 0.6	1.307
313.15 K, 101 kPa, x1 = 0.7	1.538
313.15 K, 101 kPa, x1 = 0.7988	1.78
313.15 K, 101 kPa, x1 = 0.902	2.09
313.15 K, 101.3 kPa, x1 = 0.0714	0.48
313.15 K, 101.3 kPa, x1 = 0.1586	0.54
313.15 K, 101.3 kPa, x1 = 0.2422	0.63
313.15 K, 101.3 kPa, x1 = 0.32	0.72
313.15 K, 101.3 kPa, x1 = 0.3836	0.8
313.15 K, 101.3 kPa, x1 = 0.5273	1.02
313.15 K, 101.3 kPa, x1 = 0.5975	1.1
313.15 K, 101.3 kPa, x1 = 0.6822	1.3
313.15 K, 101.3 kPa, x1 = 0.7619	1.4
313.15 K, 101.3 kPa, x1 = 0.8279	1.6
313.15 K, 101.3 kPa, x1 = 0.917	1.9
318.15 K, 101.3 kPa, x1 = 0.0714	0.46
318.15 K, 101.3 kPa, x1 = 0.1586	0.51
318.15 K, 101.3 kPa, x1 = 0.2422	0.58
318.15 K, 101.3 kPa, x1 = 0.32	0.67
318.15 K, 101.3 kPa, x1 = 0.3836	0.73
318.15 K, 101.3 kPa, x1 = 0.5273	0.92
318.15 K, 101.3 kPa, x1 = 0.5975	1.01
318.15 K, 101.3 kPa, x1 = 0.6822	1.1
318.15 K, 101.3 kPa, x1 = 0.7619	1.3
318.15 K, 101.3 kPa, x1 = 0.8279	1.4
318.15 K, 101.3 kPa, x1 = 0.917	1.6
323.15 K, 101.3 kPa, x1 = 0.0714	0.42
323.15 K, 101.3 kPa, x1 = 0.1586	0.47
323.15 K, 101.3 kPa, x1 = 0.2422	0.54
323.15 K, 101.3 kPa, x1 = 0.32	0.6
323.15 K, 101.3 kPa, x1 = 0.3836	0.66
323.15 K, 101.3 kPa, x1 = 0.5273	0.8
323.15 K, 101.3 kPa, x1 = 0.5975	0.86
323.15 K, 101.3 kPa, x1 = 0.6822	0.96
323.15 K, 101.3 kPa, x1 = 0.7619	1.07
323.15 K, 101.3 kPa, x1 = 0.8279	1.2
323.15 K, 101.3 kPa, x1 = 0.917	1.3

OCCCO + CS(C)=O
viscosity [mPa·s], 101 kPa
Conditions	293.15 K	298.15 K	303.15 K	308.15 K	313.15 K	318.15 K
x1 = 0.0513	2.47	2.13	2.03	1.84	1.7	1.61
x1 = 0.1024	2.88	2.59	2.32	2.09	1.89	1.78
x1 = 0.1534	3.26	2.95	2.63	2.35	2.14	2
x1 = 0.2043	3.74	3.35	2.99	2.67	2.4	2.24
x1 = 0.255	4.29	3.84	3.41	3.02	2.71	2.41
x1 = 0.3056	4.96	4.32	3.8	3.43	3.09	–
x1 = 0.356	5.73	5.04	4.44	3.87	3.47	–
x1 = 0.4064	6.64	5.81	5.05	4.42	3.92	–
x1 = 0.4566	7.69	6.73	5.82	5.05	4.46	–
x1 = 0.5066	9	7.73	6.65	5.81	5.08	–
x1 = 0.5565	10.6	9.09	7.76	6.67	5.81	–
x1 = 0.6063	12.5	10.6	9.02	7.72	6.7	–
x1 = 0.6556	14.7	12.5	10.6	8.96	7.67	–
x1 = 0.7055	17.6	14.8	12.4	10.4	8.88	–
x1 = 0.7549	21	17.6	14.6	12.2	10.3	–
x1 = 0.8042	25.2	21	17.3	14.3	12	–
x1 = 0.8533	30.4	25	20.5	16.8	14	–
x1 = 0.9024	36.5	29.8	24.2	19.7	16.4	–
x1 = 0.9512	43.8	35.5	28.5	23.1	19	–
